Results on three compounds are retold here after article PMC10470519, “CryoEM analysis of the essential native UDP-glucose pyrophosphorylase from Aspergillus nidulans reveals key conformations for activity regulation and function” (mBio, 2023).

Assay [1] has as its target T1, AnUGP (Aspergillus nidulans, UniProt C8VK50).
T1 construct: gene ANIA_09148; homooctamer
T1 sequence (C8VK50 1-514): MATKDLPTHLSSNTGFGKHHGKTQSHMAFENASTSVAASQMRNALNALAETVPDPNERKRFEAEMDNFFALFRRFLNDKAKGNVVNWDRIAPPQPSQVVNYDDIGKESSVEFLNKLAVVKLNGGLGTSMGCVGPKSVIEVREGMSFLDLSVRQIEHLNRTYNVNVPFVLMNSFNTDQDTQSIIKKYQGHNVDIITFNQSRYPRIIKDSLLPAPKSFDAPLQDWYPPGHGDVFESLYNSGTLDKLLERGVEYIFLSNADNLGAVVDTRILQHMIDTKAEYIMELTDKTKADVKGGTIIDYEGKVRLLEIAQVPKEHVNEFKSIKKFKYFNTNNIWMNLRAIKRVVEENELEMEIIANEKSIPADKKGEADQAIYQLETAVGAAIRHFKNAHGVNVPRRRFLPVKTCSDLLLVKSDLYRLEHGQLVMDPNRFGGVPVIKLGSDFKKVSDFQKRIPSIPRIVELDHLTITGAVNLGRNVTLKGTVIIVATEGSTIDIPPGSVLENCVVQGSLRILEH
The assay is described as follows: malachite green phosphate assay coupled to inorganic pyrophosphatase. The assay is classed as biochemical. The conditions noted are these: 0.25 mM UTP, 0.25 mM Glc-1-P, 2 mM MgCl2, 100 mM NaCl, 50 mM Tris-HCl pH 7.5, 30 °C.

In assay [2] the target is UDP-glucose pyrophosphorylase from Aspergillus nidulans (Aspergillus nidulans). Briefly: cryo-EM structure; native AnUGP in buffer A at 0.18 mg/mL, vitrified on Quantifoil R1.2/1.3 grids; Titan Krios 300 kV; C1, D4 and locally refined maps; 3D variability analysis.
For assay [3] the target is unchanged. The assay is described as follows: SEC; Superose 6 GL 10/300 in buffer A (50 mM Tris, 200 mM NaCl, 2 mM β-mercaptoethanol, pH 7.8); peak around 14.5 mL.

For the compound `O=P(O)(O)O[C@H]1O[C@H](CO)[C@@H](O)[C@H](O)[C@H]1O` [Glc-1-P], in assay [1], the “malachite green phosphate assay coupled to inorganic pyrophosphatase” value is “AnUGP catalyzes the condensation reaction between UTP and Glc-1-P to produce UDP-Glc and PPi”. Still for that read-out and setting: next, `O=c1ccn([C@@H]2O[C@H](COP(=O)(O)OP(=O)(O)OP(=O)(O)O)[C@@H](O)[C@H]2O)c(=O)[nH]1` [UTP]: “the enzyme was specific for UTP and unable to use ATP or GTP”. In the case of “UDP-glucose pyrophosphorylase from Aspergillus nidulans (enzyme)”, the stoichiometry N in assay [2] and in assay [3] was 8 throughout.
